Experimental data published in patent publication US20200024278A1, “COMPOSITION COMPRISING ANTIBIOTIC COMPOUND AND AN HETEROCYCLIC COMPOUND AND THEIR USE IN PREVENTING OR TREATING BACTERIAL INFECTIONS” (MUTABILIS, priority 2016, published 2020).
Read-outs that look alike come from different tables or passages of the source.

How the values were obtained:
Experiment in all cases: MIC, broth microdilution (CLSI), substance alone or ATB combined with compound at 4 or 8 μg/mL
SAU 29213 = type: cell-based, S. aureus; details: SAU 29213
Summary of the method: (§1)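 CLSI M7-A7 broth microdilution. ca-MHB, 5·10^5 CFU/mL log-phase cells, 16-20 h, 35° C, ambient air. Fosfomycin wells + 25 μg/ml glucose-6-phosphate. Visual MIC read.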

PAE 105250 = type: cell-based, P. aeruginosa; details: PAE 105250
Summary of the method: as §1

PAE UFR90 = type: cell-based, P. aeruginosa; details: PAE UFR90
Summary of the method: as §1

PAE UFR48 = type: cell-based, P. aeruginosa; details: PAE UFR48
Summary of the method: as §1

SPN 49619 = type: cell-based, S. pneumoniae; details: SPN 49619
Summary of the method: as §1

ECL P99 = type: cell-based, E. cloacae; details: ECL P99; for MIC: Enterobacter cloacae
Summary of the method: as §1

[1] = Pseudomonas aeruginosa, antibiotic alone, read-out: MIC ATB alone

CC1(C)S[C@@H]2[C@H](NC(=O)[C@H](N)c3ccc(O)cc3)C(=O)N2[C@H]1C(=O)O [AMX, Amoxicillin, reference compound]
> 1020 µg/mL: MIC (PAE 105250; [1]) | MIC (PAE UFR48; [1]) | MIC (ECL P99; antibiotic alone, read-out: MIC ATB alone) | MIC (ECL P99; substance alone, read-out: MIC)
<=0.031 μg/mL: MIC ATB combined with Example 7 @8 μgml (SPN 49619; with Example 7 at 8 μg/ml) | MIC ATB combined with Example 13 @8 μg/ml (SPN 49619; with Example 13 at 8 μg/ml)
>32 µg/mL: MIC ATB combined with Example 7 @8 μgml (PAE 105250; with Example 7 at 8 μg/ml) | MIC ATB combined with Example 9 @4 μg/ml (PAE 105250; with Example 9 @4 μg/ml) | MIC ATB combined with Example 9 @4 μg/ml (PAE 105250; with Example 9 at 4 μg/ml) | MIC ATB combined with Example 11 @8 μg/ml (PAE 105250; with Example 11 at 8 μg/ml) | MIC ATB combined with Example 12 @8 μg/ml (PAE 105250; with Example 12 at 8 μg/ml) | MIC ATB combined with Example 13 @8 μg/ml (PAE 105250; with Example 13 at 8 μg/ml) | MIC ATB combined with Example 14 @8 μg/ml (PAE 105250; with Example 14 at 8 μg/ml) | MIC ATB combined with Example 15 @4 μgml (PAE 105250; with Example 15 at 4 μg/ml) | MIC ATB combined with Example 16 @4 μg/ml (PAE 105250; with Example 16 at 4 μg/ml) | MIC ATB combined with Example 7 @8 μgml (PAE UFR90; with Example 7 at 8 μg/ml) | MIC ATB combined with Example 9 @4 μg/ml (PAE UFR90; with Example 9 @4 μg/ml) | MIC ATB combined with Example 9 @4 μg/ml (PAE UFR90; with Example 9 at 4 μg/ml) | MIC ATB combined with Example 11 @8 μg/ml (PAE UFR90; with Example 11 at 8 μg/ml) | MIC ATB combined with Example 12 @8 μg/ml (PAE UFR90; with Example 12 at 8 μg/ml) | MIC ATB combined with Example 13 @8 μg/ml (PAE UFR90; with Example 13 at 8 μg/ml) | MIC ATB combined with Example 14 @8 μg/ml (PAE UFR90; with Example 14 at 8 μg/ml) | MIC ATB combined with Example 15 @4 μgml (PAE UFR90; with Example 15 at 4 μg/ml) | MIC ATB combined with Example 16 @4 μg/ml (PAE UFR90; with Example 16 at 4 μg/ml) | MIC ATB combined with Example 7 @8 μgml (PAE UFR48; with Example 7 at 8 μg/ml) | MIC ATB combined with Example 9 @4 μg/ml (PAE UFR48; with Example 9 @4 μg/ml) | MIC ATB combined with Example 9 @4 μg/ml (PAE UFR48; with Example 9 at 4 μg/ml) | MIC ATB combined with Example 11 @8 μg/ml (PAE UFR48; with Example 11 at 8 μg/ml) | MIC ATB combined with Example 12 @8 μg/ml (PAE UFR48; with Example 12 at 8 μg/ml) | MIC ATB combined with Example 13 @8 μg/ml (PAE UFR48; with Example 13 at 8 μg/ml) | MIC ATB combined with Example 14 @8 μg/ml (PAE UFR48; with Example 14 at 8 μg/ml) | MIC ATB combined with Example 15 @4 μgml (PAE UFR48; with Example 15 at 4 μg/ml) | MIC ATB combined with Example 16 @4 μg/ml (PAE UFR48; with Example 16 at 4 μg/ml) | MIC ATB combined with Example 7 @8 μgml (ECL P99; with Example 7 at 8 μg/ml) | MIC ATB combined with Example 13 @8 μg/ml (ECL P99; with Example 13 at 8 μg/ml)
2 µg/mL: MIC (SAU 29213; Staphylococcus aureus, antibiotic alone, read-out: MIC ATB alone)
> 32 µg/mL: MIC (PAE UFR90; [1])
<0.031 µg/mL: MIC ATB combined with Example 9 @4 μg/ml (SAU 29213; with Example 9 @4 μg/ml) | MIC ATB combined with Example 9 @4 μg/ml (SAU 29213; with Example 9 at 4 μg/ml) | MIC ATB combined with Example 11 @8 μg/ml (SAU 29213; with Example 11 at 8 μg/ml) | MIC ATB combined with Example 12 @8 μg/ml (SAU 29213; with Example 12 at 8 μg/ml) | MIC ATB combined with Example 14 @8 μg/ml (SAU 29213; with Example 14 at 8 μg/ml) | MIC ATB combined with Example 15 @4 μgml (SAU 29213; with Example 15 at 4 μg/ml) | MIC ATB combined with Example 16 @4 μg/ml (SAU 29213; with Example 16 at 4 μg/ml) | MIC ATB combined with Example 1 @8 μg/ml (PAE UFR90; with Example 1 @8 μg/ml) | MIC ATB combined with Example 1 @8 μg/ml (PAE UFR90; with Example 1 at 8 μg/ml) | MIC ATB combined with Example 1 @8 μg/ml (PAE UFR48; with Example 1 @8 μg/ml) | MIC ATB combined with Example 1 @8 μg/ml (PAE UFR48; with Example 1 at 8 μg/ml) | MIC ATB combined with Example 9 @4 μg/ml (SPN 49619; with Example 9 @4 μg/ml) | MIC ATB combined with Example 9 @4 μg/ml (SPN 49619; with Example 9 at 4 μg/ml) | MIC ATB combined with Example 11 @8 μg/ml (SPN 49619; with Example 11 at 8 μg/ml) | MIC ATB combined with Example 12 @8 μg/ml (SPN 49619; with Example 12 at 8 μg/ml) | MIC ATB combined with Example 14 @8 μg/ml (SPN 49619; with Example 14 at 8 μg/ml) | MIC ATB combined with Example 15 @4 μgml (SPN 49619; with Example 15 at 4 μg/ml) | MIC ATB combined with Example 16 @4 μg/ml (SPN 49619; with Example 16 at 4 μg/ml) | MIC ATB combined with Example 1 @8 μg/ml (ECL P99; with Example 1 @8 μg/ml) | MIC ATB combined with Example 1 @8 μg/ml (ECL P99; with Example 1 at 8 μg/ml) | MIC ATB combined with Example 9 @4 μg/ml (ECL P99; with Example 9 @4 μg/ml) | MIC ATB combined with Example 9 @4 μg/ml (ECL P99; with Example 9 at 4 μg/ml) | MIC ATB combined with Example 11 @8 μg/ml (ECL P99; with Example 11 at 8 μg/ml) | MIC ATB combined with Example 12 @8 μg/ml (ECL P99; with Example 12 at 8 μg/ml) | MIC ATB combined with Example 14 @8 μg/ml (ECL P99; with Example 14 at 8 μg/ml) | MIC ATB combined with Example 15 @4 μgml (ECL P99; with Example 15 at 4 μg/ml) | MIC ATB combined with Example 16 @4 μg/ml (ECL P99; with Example 16 at 4 μg/ml)
0.25 µg/mL: MIC ATB combined with Example 1 @8 μg/ml (SAU 29213; with Example 1 at 8 μg/ml)
